According to patent US5843449A, “Proteins and novel peptides derived from autoantigen for use in immunotherapy of autoimmune diseases” (Akzo Nobel N.V., priority 1996, dated 1998):
Read-outs that look alike come from different tables or passages of the source. Residues, ends and D or L forms follow the SMILES beside them.

How the values were obtained:
[1] = target: T1, DR4Dw4 (DRB1*0401) HLA-DR molecules (Homo sapiens, UniProt P01903+P01911, A100K/A169T/F76Y/I96L/K127E/L162R/M171V/N62H/P40V/Q125Y/R42H/S133A/S149N/S66Y/V115G/V209L/W38E); test: HLA-DR peptide binding assay (competition with biotinylated marker peptide), DR4Dw4; conditions: pH = 5, 50 nM biotin-spacer-IHA(307-319)F marker peptide
T1 construct: endogenous in cells; host or cells: BSM, EBV-transformed B-cell line

DR4Dw14 HLA-DR molecules = test: HLA-DR peptide binding assay (competition with biotinylated marker peptide), DR4Dw14; parameters: species or system human; conditions: pH = 5, 50 nM biotin-spacer-IHA(307-319)F marker peptide
PBMC from RA patients = test: Proliferative responses of PBMC from RA patients (3H-thymidine); type: cell-based, human; conditions: 10% autologous serum
Procedure: Peripheral blood mononuclear cells (PBMC) from patients who were diagnosed as suffering from RA according to the American Rheumatism Association (ARA) criteria (Arnett et al., Arthritis Rheum. 31:315, 1988) were collected.
(§1) PBMC obtained from heparinized venous peripheral blood were isolated by standard centrifugation on a Ficoll-Paque gradient. […] Cultures were incubated in a total volume of 210 μl for 7 days at 37° C. in a humidified atmosphere of 5% CO2. Cultures were pulsed during the last 18 hours with 0.25 μCi^3 H-thymidine.

PBMC from healthy donors = test: Proliferative responses of PBMC from healthy donors (3H-thymidine); type: cell-based, human; conditions: 10% autologous serum
Procedure: PBMC's from healthy donors carrying the DR4Dw4 (DRB1*0401) or the DR1 specificity were collected as a control.
as §1

## CC(C)[C@H](N)C(=O)NCC(=O)N[C@@H](Cc1ccc(O)cc1)C(=O)N[C@@H](CC(=O)O)C(=O)N[C@@H](CC(=O)O)C(=O)N[C@@H](CCC(N)=O)C(=O)N[C@@H](CCC(=O)O)C(=O)N[C@@H](CO)C(=O)N[C@H](C(=O)N[C@@H](CCCCN)C(=O)N[C@@H](CO)C(=O)N[C@@H](CCCCN)C(=O)N[C@H](C(=O)O)C(C)C)C(C)C [Peptide 3] (H-VGYDDQESVKSKV-OH)
[1]; DOT Blot, densitometer, read-out: ^R IC50, DR4Dw4, DOT Blot
  IC50: 230 nM
[1]; SDS-PAGE, visual inspection, read-out: ^R IC50, DR4Dw4, SDS-PAGE
  IC50: 1000 nM
DR4Dw14 HLA-DR molecules; DOT Blot, densitometer, read-out: ^R IC50, DR4Dw14, DOT Blot
  IC50: > 10000 nM
DR4Dw14 HLA-DR molecules; SDS-PAGE, visual inspection, read-out: ^R IC50, DR4Dw14, SDS-PAGE
  IC50: ≤ 50000 nM
PBMC from RA patients; RA patient 191-03 (HR), disease state IV, peptide 10 μg/l
  Proliferative response, stimulation index (SI): 1
PBMC from RA patients; RA patient 191-03 (HR), disease state IV, peptide 100 μg/l
  Proliferative response, stimulation index (SI): < 2
PBMC from RA patients; RA patient 215-0 (HR), disease state III-IV, peptide 25 μg/l
  Proliferative response, stimulation index (SI): 3
PBMC from RA patients; RA patient 215-0 (HR), disease state III-IV, peptide 100 μg/l
  Proliferative response, stimulation index (SI): 6
PBMC from RA patients; RA patient 240-0 (HR), disease state II-III, peptide 25 μg/l
  Proliferative response, stimulation index (SI): 2
PBMC from RA patients; RA patient 240-0 (HR), disease state II-III, peptide 100 μg/l
  Proliferative response, stimulation index (SI): 6
PBMC from RA patients; RA patient 242-0 (HR), disease state I, peptide 25 μg/l
  Proliferative response, stimulation index (SI): 9
PBMC from RA patients; RA patient 242-0 (HR), disease state I, peptide 100 μg/l
  Proliferative response, stimulation index (SI): 3
PBMC from RA patients; RA patient 243-0 (R), disease state III, peptide 10 μg/l
  Proliferative response, stimulation index (SI): 1
PBMC from RA patients; RA patient 243-0 (R), disease state III, peptide 100 μg/l
  Proliferative response, stimulation index (SI): 1
PBMC from RA patients; RA patient 247-0 (R), disease state III, peptide 10 μg/l
  Proliferative response, stimulation index (SI): 1
PBMC from RA patients; RA patient 248-0 (R), disease state III, peptide 10 μg/l
  Proliferative response, stimulation index (SI): 1
PBMC from RA patients; RA patient 248-0 (R), disease state III, peptide 100 μg/l
  Proliferative response, stimulation index (SI): 1
PBMC from RA patients; RA patient 272-0 (HR), disease state III-IV, peptide 10 μg/l
  Proliferative response, stimulation index (SI): < 1
PBMC from RA patients; RA patient 272-0 (HR), disease state III-IV, peptide 100 μg/l
  Proliferative response, stimulation index (SI): < 1
PBMC from RA patients; RA patient 273-0 (HR), disease state IV, peptide 10 μg/l
  Proliferative response, stimulation index (SI): 1
PBMC from RA patients; RA patient 273-0 (HR), disease state IV, peptide 100 μg/l
  Proliferative response, stimulation index (SI): 6
PBMC from RA patients; RA patient 275-0 (HR), disease state III, peptide 10 μg/l
  Proliferative response, stimulation index (SI): 1
PBMC from RA patients; RA patient 275-0 (HR), disease state III, peptide 100 μg/l
  Proliferative response, stimulation index (SI): 1
PBMC from RA patients; RA patient 276-0 (HR), disease state IV, burnt out, peptide 10 μg/l
  Proliferative response, stimulation index (SI): < 1
PBMC from RA patients; RA patient 276-0 (HR), disease state IV, burnt out, peptide 100 μg/l
  Proliferative response, stimulation index (SI): 1
PBMC from RA patients; RA patient 280-0 (HR), disease state IV, burnt out, peptide 10 μg/l
  Proliferative response, stimulation index (SI): 1
PBMC from RA patients; RA patient 280-0 (HR), disease state IV, burnt out, peptide 100 μg/l
  Proliferative response, stimulation index (SI): 1
PBMC from healthy donors; healthy donor 155-03 (NR), peptide 10 μg/ml
  Proliferative response, stimulation index (SI): < 2
PBMC from healthy donors; healthy donor 155-03 (NR), peptide 100 μg/ml
  Proliferative response, stimulation index (SI): 1
PBMC from healthy donors; healthy donor 156-03 (NR), peptide 10 μg/ml
  Proliferative response, stimulation index (SI): 1
PBMC from healthy donors; healthy donor 156-03 (NR), peptide 100 μg/ml
  Proliferative response, stimulation index (SI): < 1
PBMC from healthy donors; healthy donor 157-03 (NR), peptide 10 μg/ml
  Proliferative response, stimulation index (SI): 1
PBMC from healthy donors; healthy donor 157-03 (NR), peptide 100 μg/ml
  Proliferative response, stimulation index (SI): 1
PBMC from healthy donors; healthy donor 157-04 (R), peptide 10 μg/ml
  Proliferative response, stimulation index (SI): 1
PBMC from healthy donors; healthy donor 168-03 (NR), peptide 10 μg/ml
  Proliferative response, stimulation index (SI): 1
PBMC from healthy donors; healthy donor 168-03 (NR), peptide 100 μg/ml
  Proliferative response, stimulation index (SI): 1
PBMC from healthy donors; healthy donor 168.02 (NR), peptide 10 μg/ml
  Proliferative response, stimulation index (SI): < 2
PBMC from healthy donors; healthy donor 168.02 (NR), peptide 100 μg/ml
  Proliferative response, stimulation index (SI): < 2
PBMC from healthy donors; healthy donor 169-02 (NR), peptide 10 μg/ml
  Proliferative response, stimulation index (SI): 1
PBMC from healthy donors; healthy donor 169-02 (NR), peptide 100 μg/ml
  Proliferative response, stimulation index (SI): 1
PBMC from healthy donors; healthy donor 230-01 (NR), peptide 10 μg/ml
  Proliferative response, stimulation index (SI): 1
PBMC from healthy donors; healthy donor 230-01 (NR), peptide 100 μg/ml
  Proliferative response, stimulation index (SI): 1
PBMC from healthy donors; healthy donor 235-0 (NR), peptide 10 μg/ml
  Proliferative response, stimulation index (SI): 1
PBMC from healthy donors; healthy donor 235-0 (NR), peptide 100 μg/ml
  Proliferative response, stimulation index (SI): < 2
PBMC from healthy donors; healthy donor 235-01 (NR), peptide 10 μg/ml
  Proliferative response, stimulation index (SI): < 1
PBMC from healthy donors; healthy donor 235-01 (NR), peptide 100 μg/ml
  Proliferative response, stimulation index (SI): < 2
PBMC from healthy donors; healthy donor 236-01 (NR), peptide 10 μg/ml
  Proliferative response, stimulation index (SI): 1
PBMC from healthy donors; healthy donor 236-01 (NR), peptide 100 μg/ml
  Proliferative response, stimulation index (SI): < 1
PBMC from healthy donors; healthy donor 237-0 (NR), peptide 10 μg/ml
  Proliferative response, stimulation index (SI): < 1
PBMC from healthy donors; healthy donor 237-0 (NR), peptide 100 μg/ml
  Proliferative response, stimulation index (SI): 1
PBMC from healthy donors; healthy donor 237-01 (NR), peptide 10 μg/ml
  Proliferative response, stimulation index (SI): 1
PBMC from healthy donors; healthy donor 237-01 (NR), peptide 100 μg/ml
  Proliferative response, stimulation index (SI): 1
PBMC from healthy donors; healthy donor 238-01 (NR), first line so labelled, peptide 10 μg/ml
  Proliferative response, stimulation index (SI): 1
PBMC from healthy donors; healthy donor 238-01 (NR), first line so labelled, peptide 100 μg/ml
  Proliferative response, stimulation index (SI): 1
PBMC from healthy donors; healthy donor 238-01 (NR), second line so labelled, peptide 10 μg/ml
  Proliferative response, stimulation index (SI): 1
PBMC from healthy donors; healthy donor 238-01 (NR), second line so labelled, peptide 100 μg/ml
  Proliferative response, stimulation index (SI): 1
PBMC from healthy donors; healthy donor 241-0 (NR), peptide 10 μg/ml
  Proliferative response, stimulation index (SI): < 1
PBMC from healthy donors; healthy donor 241-0 (NR), peptide 100 μg/ml
  Proliferative response, stimulation index (SI): < 1
PBMC from healthy donors; healthy donor 241-01 (R), peptide 10 μg/ml
  Proliferative response, stimulation index (SI): < 1
PBMC from healthy donors; healthy donor 241-01 (R), peptide 100 μg/ml
  Proliferative response, stimulation index (SI): 1
